Source: US7767824B2, “Heterocyclic compounds and cerebral function improvers containing the same as the active ingredient” (Zenyaku Kogyo Kabushiki Kaisha, priority 2001, dated 2010)
Marks after values point to notes of the source that are not given here.

Tests used:
[1] = system: scopolamine-induced amnesia of rats; assay: Effects on scopolamine-induced amnesia, passive avoidance task (oral administration); assay type: in vivo, rat; details: 60 min before trial, scopolamine hydrobromide 2 mg/kg i.p., latency 24 h after shock, male Sprague Dawley rats; for inhibition in vivo at 0.01 mg/kg / inhibition in vivo at 1 mg/kg: Rattus norvegicus, po, read-out: Inhibitory rate (%)
From the text: Male rats of the Strague Dawley strain at 8 weeks of age (260±2 g body weight) were used for evaluation through passive avoidance task. The apparatus of passive avoidance task comprises illuminated and dark chambers which are separated from each other by a wall with a door. Floors are constituted by grids made of stainless steel; only the grid in the dark chamber is furnished with wiring for electrification.
Effected on the first and second days of testing was preparative training; each rat was placed in the illuminated chamber and left for 3 minutes to habituate to the apparatus. On the third day of testing, the rats were individually placed in the illuminated chamber and after entering the dark chamber, the door was closed and the floor grid was electrified to deliver electric shock (100 V, 0.4 mA, a period of 0.8 sec). In order to induce amnesia, scopolamine hydrobromide (2 mg/kg) was intraperitoneally injected 20 minutes before the electric shock was delivered. Retention in memory on the electric shock was tested 24 hours later; more specifically, retention in passive avoidance was measured in terms of a time interval (latency) from placement of each rat in the illuminated chamber to its entry into the dark chamber. The latency over 300 seconds was recorded as 300 seconds. Respective test compounds were suspended in an aqueous solution of 1% carboxymethyl cellulose and orally administered at a dose of 0.01 or 1 mg/kg 60 minutes before the trial.
Antiamnesic effects of the test compounds were evaluated by inhibitory rate (%) which is calculated by the following formula:
[formula] wherein T stands for latency and SC, administration of scopolamine hydrobromide. Experimental results are shown in the following table in which, as to each of the test compounds, only the dose showing higher inhibitory rate was indicated.

## O=C1N=C2N=CC=CN2C12Cc1ccccc1C2 [compound 25, spiro[imidazo[1,2-a]pyrimidin-2(3H)-one-3,2′-indan]]
[1]; dose 1 mg/kg p.o.
  Inhibitory rate (%): 78.3* %

## O=C1N=C2CCCCN2C12Cc1cc3ccccc3cc1C2 [compound 32, spiro[5,6,7,8-tetrahydroimidazo[1,2-a]pyridin-2(3H)-one-3,2′-benzo[f]indan]]
[1]; dose 0.01 mg/kg p.o.
  Inhibitory rate (%): 61.4* %

## CN1C=NC(Cc2ccccc2)(Cc2ccccc2)C1=O [compound 16, 4,4-dibenzyl-1-methyl-5-oxo-4,5-dihydroimidazol]
[1]; dose 0.01 mg/kg p.o.
  inhibition in vivo at 0.01 mg/kg: 73.3%

## N#Cc1ccc(CC2(Cc3ccc(C#N)cc3)C(=O)N=C3SC=CN32)cc1 [compound 5, 5,5-bis(4-cyanobenzyl)imidazo[2,1-b]thiazol-6(5H)-one]
[1]; dose 0.01 mg/kg p.o.
  inhibition in vivo at 0.01 mg/kg: 49.6%
other
  melting point: 264 to 267 °C

## O=C1N=C2C=CC=CN2C12Cc1ccc3ccccc3c1C2 (centres unmarked) [compound 27, spiro[imidazo[1,2-a]pyridin-2(3H)-one-3,2′-benzo[e]-indan]]
[1]; dose 1 mg/kg p.o.
  Inhibitory rate (%): 64.9** %

## O=C1N=C2C=CC=CN2C12Cc1cccc(F)c1C2 (centres unmarked) [compound 18, spiro[imidazo[1,2-a]pyridin-2(3H)-one-3,2′-(4′-fluoroindan)]]
[1]; dose 0.01 mg/kg p.o.
  Inhibitory rate (%): 90.3** %

## O=C1N=C2c3ccccc3C=CN2C12Cc1ccccc1C2 [compound 22, spiro[imidazo[2,1-a]isoquinolin-2(3H)-one-3,2′-indan]]
[1]; dose 0.01 mg/kg p.o.
  Inhibitory rate (%): 76.5** %

## O=C1N=C2SC=CN2C1(Cc1ccc(F)cc1)Cc1ccc(F)cc1 [compound 1, 5,5-bis(4-fluorobenzyl)imidazo[2,1-b]thiazol-6(5H)-one]
[1]; dose 1 mg/kg p.o.
  inhibition in vivo at 1 mg/kg: 56.1%

## O=C1N=C2C3=C(C=CN2C12CCCC2)CCCC3 [compound 30, spiro[7,8,9,10-tetrahydroimidazo[2,1-a]isoquinolin-2(3H)-one-3,1′-cyclopentane]]
[1]; dose 1 mg/kg p.o.
  Inhibitory rate (%): 89.5** %

## COc1cc2c(cc1OC)C(=O)C(CC1CCN(Cc3ccccc3)CC1)C2 (racemic) [compound C, (R,S)-1-benzyl-4-(5,6-dimethoxy-1-indanon-2-yl)-methylpiperidine, reference compound]
[1]; dose 0.01 mg/kg p.o.
  inhibition in vivo at 0.01 mg/kg: 12.5%
[1]; dose 1 mg/kg p.o.
  inhibition in vivo at 1 mg/kg: 24.7%

## O=C1N=C2SC=CN2C1(Cc1ccccc1)Cc1ccccc1 [compound 2, 5,5-dibenzylimidazo[2,1-b]thiazol-6(5H)-one]
[1]; dose 0.01 mg/kg p.o.
  inhibition in vivo at 0.01 mg/kg: 86.9%
other
  melting point: > 300 °C

## CC=CCC1(CC=CC)C(=O)N=C2N=CC=CN21 (centres unmarked) [compound 17, 3,3-di(2-butenyl)imidazo[1,2-a]pyrimidin-2(3H)-one]
[1]; dose 0.01 mg/kg p.o.
  inhibition in vivo at 0.01 mg/kg: 54.4%
other
  melting point: 149.5 °C (dec.)

## COc1ccc2c(c1)CC1(C2)C(=O)N=C2C=CC=CN21 (centres unmarked) [compound 19, spiro[imidazo[1,2-a]pyridin-2(3H)-one-3,2′-(5′-methoxyindan)]]
[1]; dose 1 mg/kg p.o.
  Inhibitory rate (%): 83.4** %

## CC1=CN2C(=NC(=O)C2(Cc2ccccc2)Cc2ccccc2)S1 [compound 6, 5,5-dibenzyl-2-methylimidazo[2,1-b]thiazol-6(5H)-one]
[1]; dose 0.01 mg/kg p.o.
  inhibition in vivo at 0.01 mg/kg: 66.6%
other
  melting point: > 300 °C

## O=C1N(c2ccccc2)c2ccccc2C1(Cc1ccncc1)Cc1ccncc1 [compound A, 3,3-bis(4-pyridylmethyl)-1-phenylindolin-2-one, reference compound]
[1]; dose 0.01 mg/kg p.o.
  inhibition in vivo at 0.01 mg/kg: 8.8%
[1]; dose 1 mg/kg p.o.
  inhibition in vivo at 1 mg/kg: 20.9%

## O=C1N=C2c3ccccc3C=CN2C12CC=CC2 [compound 28, spiro[imidazo[2,1-a]isoquinolin-2 (3H)-one-3,1′-(3′-cyclopentene)]]
[1]; dose 0.01 mg/kg p.o.
  Inhibitory rate (%): 88.0** %

## Oc1nc2ccccn2c1Cc1ccc2ccccc2c1 [compound 10, 2-hydroxy-3-(2-naphtylmethyl)imidazo[1,2-a]pyridin]
[1]; dose 0.01 mg/kg p.o.
  Inhibitory rate (%): 40.8* %

## O=C1N=C2N=CC=CN2C1(Cc1cccs1)Cc1cccs1 [compound 8, 3,3-bis(2-thienylmethyl)imidazo[1,2-a]pyrimidin-2(3H)-one]
[1]; dose 0.01 mg/kg p.o.
  inhibition in vivo at 0.01 mg/kg: 58.9%
other
  melting point: 192 °C (dec.)

## Nc1c2c(nc3ccccc13)CCCC2 [compound B, 9-amino-1,2,3,4-tetrahydro-acridine, reference compound]
[1]; dose 0.01 mg/kg p.o.
  inhibition in vivo at 0.01 mg/kg: 24.1%
[1]; dose 1 mg/kg p.o.
  inhibition in vivo at 1 mg/kg: 54.9%

## O=C1N=C2SC=CN2C1(Cc1cccs1)Cc1cccs1 [compound 7, 5,5-bis(2-thienylmethyl)imidazo[2,1-b]thiazol-6(5H)-one]
other
  melting point: 286 °C (dec.)

## N#Cc1cccc2c1CC1(C2)C(=O)N=C2C=CC=CN21 (centres unmarked) [compound 21, spiro[imidazo[1,2-a]pyridin-2(3H)-one-3,2′-(4′-cyanoindan)]]
[1]; dose 1 mg/kg p.o.
  Inhibitory rate (%): 52.4* %

## O=C1N=C2N=CC=CN2C1(Cc1ccccc1)Cc1ccccc1 [compound 3, 3,3-dibenzylimidazo[1,2-a]pyrimidin-2(3H)-one]
[1]; dose 0.01 mg/kg p.o.
  inhibition in vivo at 0.01 mg/kg: 60.3%
other
  melting point: > 300 °C

## O=C1N=C2C=CC=CN2C12Cc1cc3nsnc3cc1C2 [compound 23, spiro[imidazo[1,2-a]pyridin-2(3H)-one-3,2′-((1,2,5-thiadiazo)[4,5-c]indan)]]
[1]; dose 0.01 mg/kg p.o.
  Inhibitory rate (%): 88.2** %

## O=C1N=C2CCCCN2C12Cc1ccccc1C2 [compound 33, spiro[5,6,7,8-tetrahydroimidazo[1,2-a]pyridin-2(3H)-one-3,2′-indan]]
[1]; dose 0.01 mg/kg p.o.
  Inhibitory rate (%): 66.1** %

## CCCC1(CCC)C(=O)N=C2CCCCN21 [compound 15, 3,3-dipropyl-5,6,7,8-tetrahydroimidazo[1,2-a]pyridin-2(3H)-one]
[1]; dose 1 mg/kg p.o.
  inhibition in vivo at 1 mg/kg: 61.5%

## CCCCC1(CCCC)C(=O)N=C2CCCCN21 [compound 13, 3,3-dibutyl-5,6,7,8-tetrahydroimidazo[1,2-a]pyridin-2 (3H)-one]
[1]; dose 1 mg/kg p.o.
  inhibition in vivo at 1 mg/kg: 49.6%
other
  melting point: 35 to 40 °C

## O=C1N=C2C=CC=CN2C12Cc1ccc(I)cc1C2 (centres unmarked) [compound 20, spiro[imidazo[1,2-a]pyridin-2(3H)-one-3,2′-(5′-iodoindan)]]
[1]; dose 1 mg/kg p.o.
  Inhibitory rate (%): 72.4** %

## O=C1N=C2CCCCN2C1(C1CCCCC1)C1CCCCC1 [compound 12, 3,3-dicyclohexyl-5,6,7,8-tetrahydroimidazo[1,2-a]-pyridin-2(3H)-one]
[1]; dose 0.01 mg/kg p.o.
  inhibition in vivo at 0.01 mg/kg: 53.5%
other
  melting point: 218 to 220 °C

## O=C1N=C2C=CC=CN2C1Cc1ccccc1 (centres unmarked) [compound 14, 3-benzylimidazo[1,2-a]pyridin-2(3H)-one]
[1]; dose 0.01 mg/kg p.o.
  inhibition in vivo at 0.01 mg/kg: 53.6%
other
  melting point: 182 °C (dec.)

## O=C1N=C2C=CC=CN2C12Cc1ccc(C(F)(F)F)cc1C2 (centres unmarked) [compound 26, spiro[imidazo[1,2-a]pyridin-2(3H)-one-3,2′-(5′-trifluoromethylindan)]]
[1]; dose 1 mg/kg p.o.
  Inhibitory rate (%): 74.3** %

## spiro[imidazo[2,1-a]isoquinolin-2(3H)-one-3,21-(1,2,5-thiadiazo)[4,5-c]indan)] [compound 24]
[1]; dose 0.01 mg/kg p.o.
  Inhibitory rate (%): 97.1** %

## O=C1N=C2c3ccccc3C=CN2C12CCCC2 [compound 31, spiro[imidazo[2,1-a]isoquinolin-2(3H)-one-3,1′-cyclopentane]]
[1]; dose 0.01 mg/kg p.o.
  Inhibitory rate (%): 56.7* %

## O=C1N=C2C(OCc3ccccc3)=CC=CN2C12CC=CC2 [compound 29, spiro[8-benzyloxyimidazo[1,2-a]pyridin-2(3H)-one-3,1′-(3′-cyclopentene)]]
[1]; dose 1 mg/kg p.o.
  Inhibitory rate (%): 87.7** %

## Cc1ccc(CC2(Cc3ccc(C)cc3)C(=O)N=C3SC=CN32)cc1 [compound 4, 5,5-bis(4-methylbenzyl)imidazo[2,1-b]thiazol-6(5H)-one]
[1]; dose 0.01 mg/kg p.o.
  inhibition in vivo at 0.01 mg/kg: 49.8%
other
  melting point: > 300 °C

## O=C1N=C2SCCN2C1(Cc1ccccc1)Cc1ccccc1 [compound 9, 5,5-dibenzyl-2,3-dihydroimidazo[2,1-b]thiazol-6(5H)-one]
[1]; dose 0.01 mg/kg p.o.
  inhibition in vivo at 0.01 mg/kg: 86.6%
other
  melting point: 233 to 236 °C

## O=C1N=C2C=CC=CN2C12Cc1cc3ccccc3cc1C2 [compound 11, spiro[imidazo[1,2-a]pyridin-2(3H)-one-3,2′-benzo[f]-indan]]
[1]; dose 0.01 mg/kg p.o.
  Inhibitory rate (%): 80.4** %
